Measured values reported in patent US4596675A, “Novel thiopeptolide substrates for vertebrate collagenase” (Monsanto Company, priority 1985, dated 1986).
Non-standard residues stand in square brackets, D forms with d. Residues, ends and D or L forms follow the SMILES beside them. *: point of attachment. Dnp = O=[N+]([O-])c1ccc(*)c([N+](=O)[O-])c1

The compounds below were run against T1, collagenase (Homo sapiens, UniProt P03956) (assay: Rate of hydrolysis of substrates by collagenase, assayed by HPLC). Details: Comparison of Substrate; assayed by HPLC (no chromophore).
T1 construct: endogenous in cells; host or cells: normal human skin fibroblasts (culture medium)
T1 sequence (P03956 100-469): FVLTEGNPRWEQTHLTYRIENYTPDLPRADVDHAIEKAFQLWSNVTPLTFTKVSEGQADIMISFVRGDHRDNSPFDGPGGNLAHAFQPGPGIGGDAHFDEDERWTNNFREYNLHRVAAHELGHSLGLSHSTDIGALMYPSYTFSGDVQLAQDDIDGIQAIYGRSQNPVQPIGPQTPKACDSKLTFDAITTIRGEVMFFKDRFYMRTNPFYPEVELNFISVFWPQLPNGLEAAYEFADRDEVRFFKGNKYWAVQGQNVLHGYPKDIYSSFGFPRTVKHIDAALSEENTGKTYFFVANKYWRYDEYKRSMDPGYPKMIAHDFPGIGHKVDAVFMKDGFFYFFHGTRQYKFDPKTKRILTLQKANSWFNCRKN
Type: biochemical
Method: The following Table I sets forth the relative rates of hydrolysis in the above spectrophotometric assay using the above thiopeptolides as substrates in comparison to the rates of hydrolysis assayed by High Performance Liquid Chromatography (HPLC) of two commercially available substrates for collagenase and two other substrates described in copending Application Ser. No. 450,318, cited hereinbefore.

Structure (SMILES)	Relative Rate (of hydrolysis)
CCOC(=O)CNC(=O)[C@H](C)NC(=O)[C@H](CC(C)C)NC(=O)CNC(=O)[C@H](CC(C)C)NC(=O)[C@@H]1CCCN1C(C)=O [Ac--Pro--Leu--Gly--Leu--Ala--Gly--OC2 H5] (Ac-PLGLAG-OEt)	110
CC[C@H](C)[C@H](NC(=O)CNC(=O)[C@H](CCC(N)=O)NC(=O)[C@@H]1CCCN1c1ccc([N+](=O)[O-])cc1[N+](=O)[O-])C(=O)N[C@@H](C)C(=O)NCC(=O)N[C@@H](CCC(N)=O)C(=O)N[C@H](CCCNC(=N)N)C(=O)O [DNP-Pro-Gln-Gly-Ile-Ala-Gly-Gln-D-Arg-OH] (Dnp-PQGIAGQ[dR]-OH)	5
CC[C@H](C)[C@H](NC(=O)CNC(=O)[C@H](CC(C)C)NC(=O)[C@@H]1CCCN1c1ccc([N+](=O)[O-])cc1[N+](=O)[O-])C(=O)N[C@@H](C)C(=O)NCC(=O)N[C@@H](CCCNC(=N)N)C(N)=O [DNP-Pro-Leu-Gly-Ile-Ala-Gly-Arg-NH2] (Dnp-PLGIAGR-NH2)	25
CCOC(=O)CNC(=O)[C@H](CC(C)C)NC(=O)[C@H](CC(C)C)NC(=O)CNC(=O)[C@H](CC(C)C)NC(=O)[C@@H]1CCCN1C(C)=O [Ac--Pro--Leu--Gly--Leu--Leu--Gly--OC2 H5] (Ac-PLGLLG-OEt)	250
